`O=C(O)CCSc1ccccc1CNC(=O)C1Cc2ccccc2N1S(=O)(=O)c1ccc(-c2cccc(C(F)(F)F)c2)cc1` (stereo unspecified) gave a melting point of 85 to 89 °C.
Next, `C=C(Cc1ccc(Cl)cc1)C(=O)O`: 78 to 86 °C; `CC1CCCC(Cc2c[nH]c3c(=O)[nH]c(N)nc23)C1` (stereo unspecified): 282 °C; `COc1ccc(C(=O)CC(=O)Nc2ccc(C)cc2)cc1`: 122 to 126 °C.
The figure for `CC(C)(CO)NC(=O)c1n[nH]cc1NC(=O)c1ccccn1` is 193 to 195 °C; for `O=S1(=O)c2cccc3cccc(c23)N1CCN1CC=C(c2ccccc2)CC1` it is 106 °C.
`CC1(COc2ccc(N3CCN(c4ccc(C(F)(F)F)cc4)CC3)cc2)Cn2cc([N+](=O)[O-])nc2O1` (stereo unspecified) had a melting point of 231 to 233 °C.
As to `Nc1ncnc2c1ncn2[C@H]1C[C@@H](CO)C1`, the melting point lay in the range of 85 to 88 °C.
Compound `CCN(CC)C(=O)c1cc2ccc(C)cc2c(-c2ccccc2Cl)n1` had a melting point of 162 °C.
Next, `CC(=O)O[C@@H]1C(=O)N[C@@H]1c1ccccc1` (relative stereo): 150 to 151 °C.
The figure for `Cc1noc(-c2ncn3c2[C@@H]2CCCN2C(=O)c2cc(F)ccc2-3)n1` is 248 to 249 °C.
Next, `CCCCC1=Nc2ccccc2SN1`: 153 to 155 °C; `CCOc1nc2cccc(C(=O)O)c2n1Cc1ccc(-c2ccccc2-c2nnn[nH]2)cc1`: 183 to 185 °C.
Consider `C=CCCCCCCCCC(O)CC(=O)O` (stereo unspecified), for which the melting point was in the range of 62 to 64 °C.
`CCOC(=O)c1cc(-c2nnn(C)n2)c(-c2ccc(F)cc2)s1` registered a melting point of 108 to 110 °C.
For `Cc1ccc(-c2c(Cl)nc(-c3ccccc3)nc2NS(=O)(=O)c2ccc(C(C)(C)C)cc2)cc1`, the melting point lay in the range of 249 to 250 °C.
The compound `CCCCOC(=O)CCCCSc1cc(C)nc(N)n1` registered a melting point of 45 to 47 °C.
Next, `C[Si](C)(C)CCOC1OC(CO)C(O)C(O)C1N=[N+]=[N-]` (stereo unspecified): 158 to 161 °C; `Nc1nc2cc(OCc3ccccc3)ccc2c2c1ncn2CCOc1ccccc1`: 200 to 201 °C; `ClC(Cl)(Cl)c1nnc(Br)s1`: 39 °C.
Compound `Cc1cc(F)ccc1-c1ccc(S(=O)(=O)N2c3ccccc3CC2C(=O)NCc2ccc(CC(=O)O)cc2)cc1` (stereo unspecified) showed a melting point of 95 to 100 °C.
In turn, `Fc1cccc(Cn2cnnc2S)c1` yielded a melting point of 124 to 125 °C.
`O=Cc1ccc(OCc2ccccc2)c([N+](=O)[O-])c1` came in with a melting point of 100 to 102 °C.
The figure for `NC1=NN(c2ccccc2)C(c2ccccc2)C1` (stereo unspecified) is 195 to 197 °C; for `CCCCCCCCCCCCC(C(=O)O)S(=O)(=O)c1ccc(OC)cc1` (stereo unspecified) it is 82 °C; for `CCOCc1nc2c(N)nc(C)c(C)c2n1CCOCC#Cc1ccccc1` it is 129 to 130 °C.
In turn, `CN(C)Cc1nc(C=Cc2nc3ccc(F)cc3c(=O)n2-c2ccccc2F)cs1` registered a melting point of 163 to 165 °C.
In the case of `CC(C)S(=O)c1cnc(Cl)c(Cl)c1` (stereo unspecified), the melting point was 62 to 64 °C.
Turning to `COc1cccc2c(=O)c(CO)cn(C)c12`, the melting point lay within 162 to 167 °C.
In turn, `NS(=O)(=O)c1ncccc1OCCF` came in with a melting point of 122 to 123 °C.
The figure for `c1ccc2c(c1)NCCCO2` is 50 to 51 °C; for `Fc1ccc2[nH]cc(CCc3ccncc3)c2c1` it is 128 °C; for `Cc1ccc(N)c2nccc(Cl)c12` it is 104 to 107 °C.
The figure for `NS(=O)(=O)c1ccc(-c2cccc(-c3nc(-c4ccc(C(F)(F)F)cc4F)cc(C(F)(F)F)n3)c2)s1` is 192 °C.
For the compound `Nc1c(C(=O)c2cccc(Cl)c2)[nH]c2cc(Cl)ccc12`, the melting point was 99 to 102 °C.
Next, `CC(CNc1cc(Oc2ccc3c(C(=O)Nc4cc(C(C)(C)C)nn4-c4ccc(F)cc4)cccc3c2)ncn1)N(C)C` (stereo unspecified): 190 to 193 °C.
Next, `O=C(Cc1ccc(Cl)c(Cl)c1)N1C(=O)OC[C@@H]1Cc1ccccc1`: 70.5 to 71.5 °C; `O=C(C(=O)c1cccc(I)c1)c1cccc(I)c1`: 127 °C.
For the compound `Cc1ccc(C2(c3ccccc3)OCc3c2cnc(C)c3OCC(=O)O)cc1` (stereo unspecified), the melting point came to 223 °C.
`CCCCS(=O)(=O)Nc1ccc(C(=O)c2ccccc2)cc1` came in with a melting point of 76 to 80 °C.
Next, `CC(C)c1nc(O)c([N+](=O)[O-])c(O)n1`: 300 °C; `O=C(Nc1ccncn1)C(CC1CCCC1)c1cccc(C(F)(F)F)c1` (stereo unspecified): 113 to 115 °C.
The compound `COC1CCc2c(cc(-c3ccccc3)n2-c2ccc(O)cc2)C1` (stereo unspecified) registered a melting point of 174 to 175 °C.
In the case of `CC(C)(O)c1cc2cc(O)c(Cl)c(Cl)c2s1`, the melting point is 171 to 173 °C.
`CCOC(=O)c1ccc(N(CC)Cc2ccc(Cl)cc2)cc1` gave a melting point of 48 to 50 °C.
Take `Cc1ccccc1-c1nc(-c2ccccc2)c[nH]1`: the melting point fell in the range of 145 to 146 °C.
Next, `C[C@H](O)[C@@H](COc1ccc(Cl)c(Cl)c1)n1cnc(C(N)=O)c1`: 115 to 121 °C; `COc1cc(C(=O)NS(C)(=O)=O)cc(OC)c1-c1ccc(C[C@H](NC(=O)c2c(Cl)cccc2Cl)C(=O)O)cc1`: 277 to 278 °C; `O=C(O)Cn1nnnc1S`: 110 to 111 °C.
In the case of `Nc1ccc(C2=NNC(=O)Cc3cc4c(cc32)OCO4)cc1`, the melting point lay within 242 to 244 °C.
With `Cc1ccc(S(=O)(=O)OCC(=O)C(=NO)C(=O)OC(C)(C)C)cc1`, the melting point lay in the range of 106 to 108 °C.
Compound `OCCc1c[nH]c2cc(-c3cc(Nc4ccc(N5CCOCC5)cn4)c4nccn4c3)ccc12` gave a melting point of 159 to 161 °C.
Next, `CCCc1c2c(c3oc(C(=O)OC)cc(=O)c3c1OC)CCCC2`: 124 °C; `COc1c(F)cc(Br)c(C(=O)O)c1F`: 92 to 94 °C.
Next, `CC(=O)CCS(=O)(=O)C(c1ccc(Cl)cc1)c1ccc(Cl)cc1`: 103 to 105 °C.
The figure for `O=C(Nc1ccc(CCCc2nnn[nH]2)cc1)C(F)(F)C(F)(F)C(F)(F)F` is 144 to 145 °C; for `CNC(=NC#N)NCCCCSc1nccc(NC(N)=NCC(F)(F)F)n1` it is 179 to 180 °C.
On to `CCOC(=O)C(=CNc1ccc(OCC)c(C)n1)C(=O)OCC`, for which the melting point lay within 132 to 138 °C.
Consider `Cc1cc(-n2ccnc2)c2cccc(OCc3c(Cl)ccc(S(=O)(=O)N4CCC[C@H]4C(=O)N(C)CCCN(C)C)c3Cl)c2n1`, for which the melting point is 80 °C.
The figure for `Cc1cccc(C(F)(F)C(F)(F)c2ccccc2)c1C` is 110 to 112 °C; for `O=C(NO)c1ccc(CNC(=O)c2[nH]c(-c3ccc(O)cc3)cc2-c2ccoc2)cc1` it is 122 to 123 °C.
Compound `COc1ccc2c(c1)c(OC(C)C)c(C(N)=O)n2-c1ccccc1` gave a melting point of 152 to 154 °C.
The compound `CC(=O)c1c(C)[nH]c(C2CCCC2)c1C` had a melting point of 162 to 164 °C.
Compound `COC(=O)CN(N)c1cc(C)cc(C)c1` yielded a melting point of 56 to 58 °C.
The figure for `COc1ccc(C(=O)Nc2ccc(F)c(F)c2)cc1NS(=O)(=O)c1ccc(C#N)cc1` is 228 to 230 °C; for `NS(=O)(=O)c1ccc(-c2cnn(-c3ccc(F)cc3)c(=O)c2-c2ccc(F)cc2)cc1` it is 213 to 216 °C.

For orientation: melting point means the temperature, or range, at which the solid turns liquid.

Values taken from a melting point compilation (Tetko et al.; mined from patent text by program, amines drawn as free bases though some values may be those of a salt).
